{
  "source": "patent US20140057918A1",
  "about": "“Methods of Use for Monomethyl Fumarate and Prodrugs Thereof” (XenoPort, Inc., priority 2012, published 2014)",
  "origin": "cited, not measured here",
  "key": {"herpes simplex virus": {"system": "herpes simplex virus", "conditions": "animals infected with the herpes simplex virus"}},
  "note": "Where a name gives a salt, the structure may show the parent alone.",
  "data": [
    {"smiles": "COC(=O)/C=C/C(=O)OC", "note": "[Dimethyl fumarate, Dimethyl (E)-butenedioate]", "values": [
      {"measurement": "aqueous solubility", "value": "poor"},
      {"measurement": "herpes stromal keratitis", "setting": "herpes simplex virus", "value": "improved"}
    ]}
  ]
}
